According to patent publication US11655232B2 (Celgene Corporation, priority 2003, dated 2023):
≈ marks a conversion by molar mass, not a printed value. Where “and” joins values, the source holds several entries; their conditions need not be identical. Equal entries are not always repeated. Entries after “also recorded” stand apart in the source; their conditions may differ. Marks after values point to notes of the source that are not given here. Values belong to the molecule of their own block, whether it stands above or below them.

Experiments:
[1] = Interconversion slurry experiments
Method: Interconversion experiments were carried out by making slurries containing two forms in a saturated solvent. The slurries were agitated for approximately 7-20 days at ambient temperature. The insoluble solids were recovered by filtration and analyzed using XRPD.

[2] = Moisture sorption/desorption; format: physicochemical
Method: Moisture sorption/desorption data were collected on a VTI SGA-100 moisture balance system. For sorption isotherms, a sorption range of 5 to 95% relative humidity (RH) and a desorption range of 95 to 5% RH in 10% RH increments was used for analysis. The sample was not dried prior to analysis. Equilibrium criteria used for analysis were less than 0.0100 weight percent change in 5 minutes with a maximum equilibration time of 3 hours if the weight criterion was not met. Data were not corrected for the initial moisture content of the samples.

Desolvation by heating = format: physicochemical; conditions: about 150° C. for about five minutes
[3] = Intrinsic dissolution (Woods apparatus); format: physicochemical; conditions: for dissolution rates (estimated) / Final Form of undissolved solids after intrinsic dissolution (XRPD) / Intrinsic Dissolution #2 (rate): HCl buffer pH 1.8, 1% sodium lauryl sulfate; for Final Form of undissolved solids after intrinsic dissolution (XRPD) / Intrinsic Dissolution #1 (rate) / Intrinsic Dissolution #2 (rate): 37° C.; for Average Intrinsic Dissolution Rate: average of experiments #1 and #2; for Intrinsic Dissolution #1 (rate): experiment #1, 900 mL HCl buffer pH 1.8, 1% sodium lauryl sulfate; for Intrinsic Dissolution #1 (rate) / Intrinsic Dissolution #2 (rate): 50 rpm; for Intrinsic Dissolution #2 (rate): experiment #2
Method: Dissolution experiments were carried out in a VanKel VK6010-8 dissolution apparatus equipped with a VK650A heater/circulator. An intrinsic dissolution apparatus (Woods apparatus) was used. Samples were compressed at 1.5 metric tons (1000 psi) for 1 min using the Woods apparatus in a hydraulic press, giving a sample surface of 0.50 cm^2. […] The medium was degassed by vacuum filtration through a 0.22-μm nylon filter disk and maintained at 37° C. The apparatus was rotated at 50 rpm for each experiment. Aliquots were filtered immediately using 0.2-μm nylon syringe filters. In some cases, the undissolved solids were recovered and analyzed by X-ray powder diffraction (XRPD).
(§1) Diffracted radiation was detected by a NaI scintillation detector.

[4] = Temperature/relative humidity stress storage; format: physicochemical; conditions: about 85 days; room temperature/0% RH and 40° C./93% RH
[5] = Compression and grinding, form check by XRPD; format: physicochemical; conditions: compressed into disks in Woods apparatus, 2 metric tons, ground gently
Method: as §1
Approximately 200 mg each of Forms A and B were compressed into disks in the Woods apparatus using 2 metric tons of pressure. The samples were subsequently scraped out, ground gently, and analyzed by XRPD. […] (See Table 7).

[6] = Equilibrium solubility in dissolution medium; conditions: for Final Form of solids remaining from solubility experiment (XRPD) / Concentration: HCl buffer pH 1.8, 1% sodium lauryl sulfate; for Final Form of solids remaining from solubility experiment (XRPD): final time point
Method: A solid sample of 400-450 mg was stirred in 50 mL of dissolution medium (HCl buffer, pH 1.8, with 1% sodium lauryl sulfate) using a mechanical stir rod. Aliquots were filtered using 0.2-μm nylon syringe filters and immediately diluted 1 mL→50 mL, then 5 mL→25 mL with dissolution medium in Class A glassware, a final dilution factor of 250.
Dissolution and solubility samples solutions were analyzed by a Beckman DU 640 single-beam spectrophotometer. A 1.000-cm quartz cuvette and an analysis wavelength of 228.40 nm were utilized. The detector was zeroed with a cuvette filled with dissolution medium.
XRPD analyses were carried out on a Shimadzu XRD-6000 X-ray powder diffractometer using Cu Kα radiation. The instrument is equipped with a fine focus X-ray tube. The tube power and amperage were set at 40 kV and 40 mA, respectively. The divergence and scattering slits were set at 1° and the receiving slit was set at 0.15 mm. Diffracted radiation was detected by a NaI scintillation detector. A theta-two theta continuous scan at 3°/min (0.4 sec/0.02° step) from 2.5 to 40°2θ was used. A silicon standard was analyzed each day to check the instrument alignment. Samples were packed in an aluminum holder with silicon insert.

[7] = from 5 to 95% relative humidity

SMILES: Nc1cccc2c1CN(C1CCC(=O)NC1=O)C2=O (single isomer, unassigned) [Form B, 3-(4-amino-1-oxo-1,3 dihydro-isoindol-2-yl)-piperidine-2,6-dione]
- Cumulative Amount Dissolved per Unit Area ([3]; Experiment #1, 5 min): 10.80^b mg/cm2
- Cumulative Amount Dissolved per Unit Area ([3]; Experiment #1, 10 min): 6.85 mg/cm2
- Cumulative Amount Dissolved per Unit Area ([3]; Experiment #1, 20 min): 10.25 mg/cm2
- Cumulative Amount Dissolved per Unit Area ([3]; Experiment #1, 30 min): 14.35 mg/cm2
- Cumulative Amount Dissolved per Unit Area ([3]; Experiment #1, 45 min): 20.57 mg/cm2
- Cumulative Amount Dissolved per Unit Area ([3]; Experiment #1, 60 min): 25.70 mg/cm2
- Cumulative Amount Dissolved per Unit Area ([3]; Experiment #1, 90 min): 34.34 mg/cm2
- Cumulative Amount Dissolved per Unit Area ([3]; Experiment #2, 5 min): 5.04 mg/cm2
- Cumulative Amount Dissolved per Unit Area ([3]; Experiment #2, 10 min): 6.12 mg/cm2
- Cumulative Amount Dissolved per Unit Area ([3]; Experiment #2, 20 min): 7.73 mg/cm2
- Cumulative Amount Dissolved per Unit Area ([3]; Experiment #2, 30 min): 12.72 mg/cm2
- Cumulative Amount Dissolved per Unit Area ([3]; Experiment #2, 45 min): 17.33 mg/cm2
- Cumulative Amount Dissolved per Unit Area ([3]; Experiment #2, 60 min): 21.93 mg/cm2
- Cumulative Amount Dissolved per Unit Area ([3]; Experiment #2, 90 min): 31.64 mg/cm2
- Cumulative Amount Dissolved per Unit Area ([3]; Experiment #2, 120 min): 41.31 mg/cm2
- Cumulative Amount Dissolved per Unit Area ([3]; Experiment #2, 150 min): 49.54 mg/cm2
- dissolution rates (estimated) [3]: 0.34 mg/cm²/min
- Final Form of undissolved solids after intrinsic dissolution (XRPD) [3]: did not change
- Average Intrinsic Dissolution Rate [3]: 0.34 mg per cm^2 per minute
- Intrinsic Dissolution #1 (rate) [3]: 0.35 mg per cm^2 per minute
- Intrinsic Dissolution #2 (rate) [3]: 0.32 mg per cm^2 per minute
- weight gain on moisture sorption [2, 7]: does not exhibit a significant weight gain
- form after stress storage [4]: does not convert to a different form
- Final Form after pressing (compression and grinding, XRPD) [5]: does not cause a form change
- interconversion / stability in solvent system ([1]; THF solvent system): typically converts to Form A
- interconversion / stability in solvent system ([1]; acetone solvent system): typically converts to Form C
- interconversion / stability in solvent system ([1]; anhydrous solvent systems): converts to other forms
- interconversion ([1]; in the presence of water): can convert to Form E
- Final Form of solids remaining from solubility experiment (XRPD) [6]: Form B
- Solubility ([6]; HCl buffer, pH 1.8, with 1% sodium lauryl sulfate, 25° C., estimated): 5800 µg/mL (≈ 22.4 mM)
- Concentration stabilized ([6]; final three time points (180, 420, 650 min)): 5600 to 5700 µg/mL
- stability in water (suggested by remaining solids) ([6]; slurry in dissolution medium up to 650 min): good stability in water
- Concentration ([6]; time point 7 min, 25° C.): 1630 µg/mL
- Concentration ([6]; time point 15 min, 25° C.): 2140 µg/mL
- Concentration ([6]; time point 30 min, 25° C.): 2330 µg/mL
- Concentration ([6]; time point 60 min, 25° C.): 2940 µg/mL
- Concentration ([6]; time point 90 min, 25° C.): 3300 µg/mL and 3340 µg/mL
- Concentration ([6]; time point 180 min, 25° C.): 5670 µg/mL
- Concentration ([6]; time point 420 min, 25° C.): 5760 µg/mL
- Concentration ([6]; time point 650 min, 25° C.): 5610 µg/mL

SMILES: Nc1cccc2c1CN(C1CCC(=O)NC1=O)C2=O (single isomer, unassigned) [Form A, 3-(4-amino-1-oxo-1,3 dihydro-isoindol-2-yl)-piperidine-2,6-dione]
- Cumulative Amount Dissolved per Unit Area ([3]; Experiment #1, 5 min): 5.76 mg/cm2
- Cumulative Amount Dissolved per Unit Area ([3]; Experiment #1, 10 min): 7.73 mg/cm2
- Cumulative Amount Dissolved per Unit Area ([3]; Experiment #1, 20 min): 11.31 mg/cm2
- Cumulative Amount Dissolved per Unit Area ([3]; Experiment #1, 30 min): 15.59 mg/cm2
- Cumulative Amount Dissolved per Unit Area ([3]; Experiment #1, 45 min): 21.98 mg/cm2
- Cumulative Amount Dissolved per Unit Area ([3]; Experiment #1, 60 min): 27.11 mg/cm2
- Cumulative Amount Dissolved per Unit Area ([3]; Experiment #1, 90 min): 34.17 mg/cm2
- Cumulative Amount Dissolved per Unit Area ([3]; Experiment #2, 5 min): 4.50 mg/cm2
- Cumulative Amount Dissolved per Unit Area ([3]; Experiment #2, 10 min): 5.22 mg/cm2
- Cumulative Amount Dissolved per Unit Area ([3]; Experiment #2, 20 min): 7.54 mg/cm2
- Cumulative Amount Dissolved per Unit Area ([3]; Experiment #2, 30 min): 11.46 mg/cm2
- Cumulative Amount Dissolved per Unit Area ([3]; Experiment #2, 45 min): 15.01 mg/cm2
- Cumulative Amount Dissolved per Unit Area ([3]; Experiment #2, 60 min): 18.38 mg/cm2
- Cumulative Amount Dissolved per Unit Area ([3]; Experiment #2, 90 min): 24.38 mg/cm2
- Cumulative Amount Dissolved per Unit Area ([3]; Experiment #2, 120 min): 30.35 mg/cm2
- Cumulative Amount Dissolved per Unit Area ([3]; Experiment #2, 150 min): 35.26 mg/cm2
- dissolution rates (estimated) [3]: 0.35 mg/cm²/min
- Final Form of undissolved solids after intrinsic dissolution (XRPD) [3]: did not change; also recorded: does not indicate a form change
- Average Intrinsic Dissolution Rate [3]: 0.29^a mg per cm^2 per minute
- Intrinsic Dissolution #1 (rate) [3]: 0.35 mg per cm^2 per minute
- Intrinsic Dissolution #2 (rate) [3]: 0.22 mg per cm^2 per minute and 0.22^a mg per cm^2 per minute
- true intrinsic dissolution rate (believed) ([3]; judged from experiment #1, since #2 disk surface may have converted to Form E): ~0.35 mg per cm^2 per minute
- hygroscopicity (summary) [2]: weakly or not hygroscopic
- weight lost from start to finish ([2]; at 5% relative humidity after drying from 95% back down to 5%): about 0.003 % by weight
- weight gain on moisture sorption [2, 7]: does not exhibit a significant weight gain
- form after stress storage [4]: typically does not convert to a different form
- Final Form after pressing (compression and grinding, XRPD) [5]: does not cause a form change
- thermodynamic stability among anhydrous polymorphs (summary) [1]: most thermodynamically stable anhydrous polymorph
- interconversion / stability in solvent system ([1]; acetone solvent system): can convert to Form C
- interconversion / stability in solvent system ([1]; anhydrous solvent systems): tends to be stable
- interconversion / stability in solvent system ([1]; aqueous solvent systems): can convert to Form B
- interconversion ([1]; water systems, in the presence of Form E): tends to convert to Form E
- Final Form of solids remaining from solubility experiment (XRPD) [6]: unstable in the medium, converting to Form E
- Concentration ([6]; time point 7 min, 25° C.): 6000 µg/mL
- Concentration ([6]; time point 15 min, 25° C.): 6110 µg/mL
- Concentration ([6]; time point 30 min, 25° C.): 6200 µg/mL and 6160 µg/mL
- Concentration ([6]; time point 60 min, 25° C.): 6100 µg/mL
- Concentration ([6]; time point 90 min, 25° C.): 5460 µg/mL
- Concentration ([6]; time point 150 min, 25° C.): 4700 µg/mL and 4730 µg/mL

SMILES: Nc1cccc2c1CN(C1CCC(=O)NC1=O)C2=O (stereo not shown) [Form C, 3-(4-amino-1-oxo-1,3 dihydro-isoindol-2-yl)-piperidine-2,6-dione]
- hygroscopicity (summary) [2]: not hygroscopic below about 85% RH
- weight loss ([2]; at 95% relative humidity): about 6.03%
- weight gain on moisture sorption ([2]; from 5 to 85% relative humidity): does not exhibit a significant weight gain
- form after heating (desolvation) (Desolvation by heating): will typically convert to Form A
- interconversion / stability in solvent system ([1]; THF solvent system): typically converts to Form A
- interconversion / stability in solvent system ([1]; acetone solvent system): most stable form
- interconversion / stability in solvent system ([1]; aqueous solvent systems): typically converts to Form E

Second part, led by results:

- interconversion ([1]; slurried in water with either Forms A or B, about 14 days): can convert to Form E
SMILES: Nc1cccc2c1CN(C1CCC(=O)NC1=O)C2=O (stereo not shown) [Form H, 3-(4-amino-1-oxo-1,3 dihydro-isoindol-2-yl)-piperidine-2,6-dione]

- hygroscopicity (summary) [2]: either weakly or not hygroscopic
- form after heating (desolvation) (Desolvation by heating): will typically convert to Form A
- interconversion / stability in solvent system ([1]; THF solvent system): capable of converting to Form A
SMILES: Nc1cccc2c1CN(C1CCC(=O)NC1=O)C2=O (stereo not shown) [Form D, 3-(4-amino-1-oxo-1,3 dihydro-isoindol-2-yl)-piperidine-2,6-dione]
- weight gain on moisture sorption [2, 7]: does not exhibit a significant weight gain
